What was measured:
Test in all cases: selective drug sensitivity score (sDSS, relative to normal bone marrow) (sDSS (score)); higher = more potent and effective on the cell line relative to normal bone marrow cells
Details in all cases: 72 h
380 = tested on: 380
ALL-SIL = tested on: ALL-SIL
COG-LL-319h = tested on: COG-LL-319h
COG-LL-355h = tested on: COG-LL-355h
JURKAT = tested on: JURKAT
KARPAS-45 = tested on: KARPAS-45
KASUMI-10 = tested on: KASUMI-10
KASUMI-9 = tested on: KASUMI-9
MHH-CALL-2 = tested on: MHH-CALL-2
MHH-CALL-3 = tested on: MHH-CALL-3
MHH-CALL-4 = tested on: MHH-CALL-4
MN-60 = tested on: MN-60
NALL-1 = tested on: NALL-1
NALM-16 = tested on: NALM-16
NALM-6 = tested on: NALM-6
PEER = tested on: PEER
PF-382 = tested on: PF-382
REH = tested on: REH
RPMI-8402 = tested on: RPMI-8402
TMD5 = tested on: TMD5
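Also: ALL cell lines in 384-well plates, five doses spanning 10,000-fold, each plate scaled between vehicle and 100 µmol/L benzalkonium chloride controls, sDSS an adapted area-under-curve metric.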

Structure (SMILES) | selective drug sensitivity score 380 | selective drug sensitivity score (ALL-SIL) | selective drug sensitivity score (COG-LL-319h) | selective drug sensitivity score (COG-LL-355h) | selective drug sensitivity score (JURKAT) | selective drug sensitivity score (KARPAS-45) | selective drug sensitivity score (KASUMI-10) | selective drug sensitivity score (KASUMI-9) | selective drug sensitivity score (MHH-CALL-2) | selective drug sensitivity score (MHH-CALL-3) | selective drug sensitivity score (MHH-CALL-4) | selective drug sensitivity score (MN-60) | selective drug sensitivity score (NALL-1) | selective drug sensitivity score (NALM-16) | selective drug sensitivity score (NALM-6) | selective drug sensitivity score (PEER) | selective drug sensitivity score (PF-382) | selective drug sensitivity score (REH) | selective drug sensitivity score (RPMI-8402) | selective drug sensitivity score (TMD5)
COc1cc(C)[nH]c(=O)c1CNC(=O)c1c(C)n([C@H](C)C2CCOCC2)c2ccccc12 [CPI-360] (top concentration 10000 nM) | 5.1 | 0 | 0 | 0 | 0.1 | 0 | 0 | 0 | 1.1 | 0 | 0 | 0 | 0 | 0 | 0 | 0 | 0 | 0 | 0 | 0
CNC(=O)c1ccc(-c2cnc3ncc(Cc4ccc5ncccc5c4)n3n2)cc1F [Capmatinib] (top concentration 1000 nM) | 2.04 | -0.06 | 14.9 | 0.04 | -0.06 | -0.06 | -0.06 | -0.06 | -0.06 | -0.06 | -0.06 | -0.06 | -0.06 | -0.06 | 0.24 | -0.06 | -0.06 | -0.06 | -0.06 | -0.06
COc1cc2c(Oc3ccc4[nH]c(C)cc4c3F)ncnc2cc1OCCCN1CCCC1 [Cediranib] (top concentration 1000 nM) | 0 | 0 | 0 | 0 | 0 | 0.2 | 0 | 3.6 | 7.2 | 0 | 0 | 0 | 0 | 0 | 0 | 0 | 0 | 0 | 0 | 3.6
CCN(CC)CCCC(C)Nc1ccnc2cc(Cl)ccc12 (stereo not given) [Chloroquine] (top concentration 100000 nM) | -4.94 | -0.74 | -5.84 | -0.34 | -5.04 | 1.26 | -4.24 | -1.94 | 1.06 | -6.04 | -1.44 | -2.74 | -8.84 | -5.24 | -2.74 | -0.94 | -2.34 | 0.96 | -1.74 | -4.54
C[C@@H](Oc1cc(-c2cnn(C3CCNCC3)c2)cnc1N)c1c(Cl)ccc(F)c1Cl [Crizotinib] (top concentration 1000 nM) | -0.54 | 5.46 | -0.54 | 2.16 | -0.54 | -0.24 | -0.54 | -0.54 | -0.54 | -0.54 | -0.54 | -0.54 | -0.54 | -0.54 | 0.96 | 1.86 | -0.54 | -0.54 | -0.54 | 1.66
COc1cc2ncnc(Nc3ccc(F)c(Cl)c3)c2cc1NC(=O)/C=C/CN1CCCCC1 [Dacomitinib] (top concentration 1000 nM) | -1.64 | -1.04 | -1.24 | 1.06 | -1.64 | 0.36 | -0.54 | 0.96 | 2.06 | 2.06 | 1.86 | -1.64 | -1.64 | -1.54 | -1.64 | -0.14 | -0.94 | -1.04 | -0.34 | 1.46
CCN(CC)CCN(Cc1ccc(-c2ccc(C(F)(F)F)cc2)cc1)C(=O)Cn1c(SCc2ccc(F)cc2)nc(=O)c2c1CCC2 [Darapladib] (top concentration 1000 nM) | -1.42 | -1.42 | -1.42 | -1.42 | -1.42 | -1.32 | -1.22 | -1.32 | 3.68 | -1.42 | 2.68 | -1.42 | 6.18 | -0.52 | -1.42 | -1.42 | -1.22 | -1.42 | -1.32 | 6.98
C[C@@H]1C[C@H]2[C@@H]3CCC4=CC(=O)C=C[C@]4(C)[C@@]3(F)[C@@H](O)C[C@]2(C)[C@@]1(O)C(=O)CO [Dexamethasone] (top concentration 10000 nM) | 32.2 | 18.6 | 26.5 | 30.7 | -1.52 | 24.4 | -1.52 | 1.78 | 28.9 | 40.3 | 36.7 | -0.52 | 34.1 | -1.52 | 30.8 | -0.92 | 1.48 | -1.52 | 3.18 | 14.9
Cc1cc(C)c(CNC(=O)c2cc(-c3ccc(CN4CCOCC4)cc3)cc3c2cnn3C2CCCC2)c(=O)[nH]1 [EPZ-5687] (top concentration 10000 nM) | -0.36 | -0.36 | -0.36 | -0.36 | -0.36 | -0.26 | -0.36 | 3.14 | 5.14 | -0.36 | -0.36 | -0.36 | 5.34 | -0.36 | -0.36 | -0.36 | -0.36 | 6.64 | -0.16 | 5.74

Reference: the supplement of paper PMC8967900
